# Laboratory results from ChEMBL document CHEMBL5518246, “Discovery of Small Molecule Interleukin 17A Inhibitors with Novel Binding Mode and Stoichiometry: Optimization of DNA-Encoded Chemical Library Hits to In Vivo Active Compounds” (J Med Chem, 2024).
# Key:
# [1] = Thermodynamic solubility of the compound at pH 7.4 measured after 48 hrs by UHPLC analysis; format: physicochemical; conditions: buffer, read-out: Therm_solubility
# [2] = Metabolic stability in human liver microsomes assessed as unbound intrinsic clearance at 0.5 uM measured after 4 hrs; format: ADME, Microsome
solubility thermodynamic at 48 h [1] [µM],CL free [2] [mL/min/kg],SMILES
–,233,O=C(N[C@@H](CCc1ccccc1)C(=O)NCc1cn2cccnc2n1)c1cc(Cl)c(Cl)[nH]1
–,70,CC(=O)N1CCO[C@@H](CNC(=O)[C@H](CCc2ccccc2)NC(=O)c2cc(Cl)c(Cl)[nH]2)C1
1.7,200,C[C@H](NC(=O)[C@H](CCc1ccccc1)NC(=O)c1cc(Cl)c(Cl)[nH]1)c1ncccn1
–,160,O=C(N[C@@H](CCc1ccccc1)C(=O)NCCC1(O)CCOCC1)c1cc(Cl)c(Cl)[nH]1
–,135,O=C(N[C@@H](CCc1ccccc1)C(=O)NCC1(CO)CCOCC1)c1cc(Cl)c(Cl)[nH]1
–,333,C[C@H](NC(=O)[C@H](CCc1ccccc1)NC(=O)c1cc(Cl)c(Cl)[nH]1)c1cn2ccoc2n1
–,98.3,O=C(N[C@@H](CCc1ccccc1)C(=O)NC[C@H]1COCCO1)c1cc(Cl)c(Cl)[nH]1
–,< 40,CNC(=O)[C@H](CCc1ccccc1)NC(=O)c1cc(Cl)c(Cl)[nH]1
–,60,O=C(N[C@@H](CCc1ccccc1)C(=O)NC[C@@H]1COCCO1)c1cc(Cl)c(Cl)[nH]1
–,217,CN1CCN(CCNC(=O)[C@H](CCc2ccccc2)NC(=O)c2cc(Cl)c(Cl)[nH]2)CC1
–,58.3,O=C(N[C@@H](CCc1ccccc1)C(=O)NC1(c2cn3cccnc3n2)CC1)c1cc(Cl)c(Cl)[nH]1
–,113,O=C(N[C@@H](CCc1ccccc1)C(=O)NCC1(O)CCOCC1)c1cc(Cl)c(Cl)[nH]1
–,125,CC[C@H](NC(=O)[C@H](CCc1ccccc1)NC(=O)c1cc(Cl)c(Cl)[nH]1)c1cn2cccnc2n1
73,71.7,O=C(N[C@@H](CCc1ccccc1)C(=O)NCc1ncc(CO)cn1)c1cc(Cl)c(Cl)[nH]1
–,938,O=C(N[C@@H](CCc1ccccc1)C(=O)N[C@@H](CO)c1cn2cccnc2n1)c1cc(Cl)c(Cl)[nH]1
–,56.7,CC(=O)N1CCO[C@H](CNC(=O)[C@H](CCc2ccccc2)NC(=O)c2cc(Cl)c(Cl)[nH]2)C1
5.7,167,COCc1cnc(CNC(=O)[C@H](CCc2ccccc2)NC(=O)c2cc(Cl)c(Cl)[nH]2)nc1
230,1300,O=C(N[C@@H](CCc1ccccc1)C(=O)NCc1cccnc1)c1cc(Cl)c(Cl)[nH]1
–,1680,C[C@H](NC(=O)[C@H](CCc1ccccc1)NC(=O)c1cc(Cl)c(Cl)[nH]1)c1cn2ccsc2n1
25,46.7,O=C(N[C@@H](CCc1ccccc1)C(=O)NCc1ncccn1)c1cc(Cl)c(Cl)[nH]1
145,1530,O=C(N[C@@H](CCc1ccccc1)C(=O)NCc1ccccc1)c1cc(Cl)c(Cl)[nH]1
–,267,C[C@@H](NC(=O)[C@H](CCc1ccccc1)NC(=O)c1cc(Cl)c(Cl)[nH]1)c1cn2cccnc2n1
–,217,O=C(NC(CCc1ccccc1)C(=O)NCc1cn2cccnc2n1)c1cc(Cl)c(Cl)[nH]1 (racemic)
–,1030,O=C(NC(CCc1ccccc1)C(=O)NCc1cnc(N2CCOCC2)nc1)c1cc(Cl)c(Cl)[nH]1 (racemic)
–,817,O=C(NC(CCc1ccccc1)C(=O)NCc1cccnc1N1CCOCC1)c1cc(Cl)c(Cl)[nH]1 (racemic)
–,1120,O=C(NC(CCc1ccccc1)C(=O)NCc1cn2ccsc2n1)c1cc(Cl)c(Cl)[nH]1 (racemic)

# More lines, now with the values behind:
SMILES,solubility thermodynamic at 48 h [1] [µM],CL free [2] [mL/min/kg]
C[C@H](NC(=O)[C@]1(NC(=O)c2cc(Cl)c(Cl)[nH]2)CO[C@H](c2ccccc2)C1)c1ncc2c(n1)CN([C@H]1CCN(C)C1)C2,> 1000,< 45
C[C@H](NC(=O)[C@]1(NC(=O)c2cc(Cl)c(Cl)[nH]2)CO[C@H](c2ccccc2)C1)c1ncc2c(n1)CN(CC(F)F)C2,7.2,55
C[C@H](NC(=O)[C@H](CCc1ccccc1)NC(=O)c1cc(Cl)c(Cl)[nH]1)c1nc2cnccc2s1,–,500
CN1C(=O)[C@@H](NC(=O)[C@@H](NC(=O)c2cc(Cl)c(Cl)[nH]2)C2CCCCC2)COc2ccccc21,–,6000
C[C@H](NC(=O)[C@H](CCc1ccccc1)NC(=O)c1cc(Cl)c(Cl)[nH]1)c1cn2cccnc2n1,–,200
C[C@H](NC(=O)[C@]1(NC(=O)c2cc(Cl)c(Cl)[nH]2)CO[C@H](c2ccccc2)C1)c1ncc2c(n1)CN(CC(F)(F)F)C2,5.3,200
O=C(N[C@@]1(C(=O)NCc2cn3cccnc3n2)CO[C@H](c2ccccc2)C1)c1cc(Cl)c(Cl)[nH]1,–,63.3
C[C@H](NC(=O)[C@]1(NC(=O)c2cc(Cl)c(Cl)[nH]2)CO[C@H](c2ccccc2)C1)c1cc2c(nn1)COC2,31,102
COCc1cnc([C@H](C)NC(=O)[C@]2(NC(=O)c3cc(Cl)c(Cl)[nH]3)CO[C@H](c3ccccc3)C2)nc1,0.82,78.3
O=C(N[C@@]1(C(=O)NCc2cn3cccnc3n2)CO[C@@H](c2ccccc2)C1)c1cc(Cl)c(Cl)[nH]1,–,115
C[C@H](NC(=O)[C@]1(NC(=O)c2cc(Cl)c(Cl)[nH]2)CO[C@H](c2ccccc2)C1)c1ncc2c(n1)CN(CCC(F)(F)F)C2,–,183
O=C(CN1C(=O)[C@@H](NC(=O)[C@@H](NC(=O)c2cc(Cl)c(Cl)[nH]2)C2CCCCC2)CSc2ccccc21)Nc1ccccc1,–,35000
C[C@H](NC(=O)[C@]1(NC(=O)c2cc(Cl)c(Cl)[nH]2)CO[C@H](c2ccccc2)C1)c1ncc2c(n1)CNC2,719,217
C[C@H](NC(=O)[C@]1(NC(=O)c2cc(Cl)c(Cl)[nH]2)CO[C@H](c2ccccc2)C1)c1ncc2c(n1)CN(C)C2,190,88.3
O=C(N[C@]1(C(=O)NCc2cn3cccnc3n2)CO[C@@H](c2ccccc2)C1)c1cc(Cl)c(Cl)[nH]1,–,< 35
CNC(=O)[C@H](CCc1ccccc1)NC(=O)c1cc(C)c[nH]1,–,35
COC[C@H](NC(=O)[C@H](CCc1ccccc1)NC(=O)c1cc(Cl)c(Cl)[nH]1)c1cn2cccnc2n1,–,107
CNC(=O)[C@@H]1C[C@@H](c2ccccc2)CN1C(=O)c1cc(Cl)c(Cl)[nH]1,–,85
C[C@H](NC(=O)[C@]1(NC(=O)c2cc(Cl)c(Cl)[nH]2)CO[C@H](c2ccccc2)C1)c1ncc2c(n1)CN(C1COC1)C2,280,< 28.3
C[C@H](NC(=O)[C@]1(NC(=O)c2cc(Cl)c(Cl)[nH]2)CO[C@H](c2ccccc2)C1)c1ncc2c(n1)CN([C@@H]1CCN(C)C1)C2,> 1000,400

SMILES,solubility thermodynamic at 48 h [1] [µM],CL free [2] [mL/min/kg]
O=C(N[C@H](C(=O)NCc1cn2cccnc2n1)[C@@H]1C[C@H]1c1ccccc1)c1cc(Cl)c(Cl)[nH]1,–,217
C[C@H](NC(=O)[C@]1(NC(=O)c2cc(Cl)c(Cl)[nH]2)CO[C@H](c2cccc(C#N)c2)C1)c1ncc2c(n1)CN(C1CCN(C)CC1)C2,654,< 38.3
O=C(N[C@H](C(=O)NCc1cn2cccnc2n1)[C@H]1C[C@@H]1c1ccccc1)c1cc(Cl)c(Cl)[nH]1,–,533
CNC(=O)[C@@H](NC(=O)c1cc(Cl)c(Cl)[nH]1)C1Cc2ccccc2C1,–,145
C[C@H](NC(=O)[C@]1(NC(=O)c2cc(Cl)c(Cl)[nH]2)CO[C@H](c2ccccc2)C1)c1cnc2c(n1)COC2,60,183
COCc1cccc([C@@H]2C[C@](NC(=O)c3cc(Cl)c(Cl)[nH]3)(C(=O)N[C@@H](C)c3ncc4c(n3)CN(C3CCN(C)CC3)C4)CO2)c1,660,< 35
C[C@H](NC(=O)[C@]1(NC(=O)c2cc(Cl)c(Cl)[nH]2)CO[C@H](c2ccccc2)C1)c1ncc2c(n1)CN(CC#N)C2,61,120
O=C(N[C@H](C(=O)NCc1cn2cccnc2n1)[C@H]1CCc2ccccc2C1)c1cc(Cl)c(Cl)[nH]1,–,667
CNC(=O)[C@@H](NC(=O)c1cc(Cl)c(Cl)[nH]1)C1CCCCC1,–,90
C[C@H](NC(=O)[C@]1(NC(=O)c2cc(Cl)c(Cl)[nH]2)CO[C@H](c2ccccc2)C1)c1ncc2c(n1)CN(C1CN(C)C1)C2,600,< 26.7
C[C@H](NC(=O)[C@]1(NC(=O)c2cc(Cl)c(Cl)[nH]2)CO[C@H](c2ccccc2)C1)c1ncc(CO)cn1,67,< 28.3
O=C(N[C@H](C(=O)NCc1cn2cccnc2n1)C1Cc2ccccc2C1)c1cc(Cl)c(Cl)[nH]1,–,120
CC(C)(NC(=O)[C@H](CCc1ccccc1)NC(=O)c1cc(Cl)c(Cl)[nH]1)c1cn2cccnc2n1,–,350
C[C@H](NC(=O)[C@]1(NC(=O)c2cc(Cl)c(Cl)[nH]2)CO[C@H](c2ccccc2)C1)c1ncc2c(n1)CCC2,3.8,333
O=C(N[C@]1(C(=O)NCc2cn3cccnc3n2)CO[C@H](c2ccccc2)C1)c1cc(Cl)c(Cl)[nH]1,–,43.3
CNC(=O)[C@H](CC(C)(C)C)NC(=O)c1cc(Cl)c(Cl)[nH]1,–,< 33
C[C@H](NC(=O)[C@H](CCc1ccccc1)NC(=O)c1cc(Cl)c(Cl)[nH]1)c1cn2nccnc2n1,–,200
O=C(NC1(C(=O)NCc2cn3cccnc3n2)Cc2ccccc2C1)c1cc(Cl)c(Cl)[nH]1,–,115
O=C(N[C@H](C(=O)NCc1cn2cccnc2n1)[C@@H]1CCc2ccccc2C1)c1cc(Cl)c(Cl)[nH]1,–,1050
COc1cccc([C@@H]2C[C@](NC(=O)c3cc(Cl)c(Cl)[nH]3)(C(=O)N[C@@H](C)c3ncc4c(n3)CN(C3CCN(C)CC3)C4)CO2)c1,532,< 41.7
